Test results: PubChem BioAssay AID435021 (Vanderbilt High Throughput Screening Facility, 2010)
Active and inactive are the calls of the source.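 Rule for the calls: active = response to a near-maximal acetylcholine dose cut to 15% or less of untreated controls; inactive = the rest.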

These molecules were tested against Muscarinic acetylcholine receptor M1 (Homo sapiens) (UniProt P11229) (assay: inhibition of ACh EC80 calcium response at hM1 – cell-based, CHO-K1 hM1, Fluo-4 calcium, SAR follow-up (AID 435021)). Conditions: at 30 µM, stronger effect = lower value.
Chain of Muscarinic acetylcholine receptor M1 (Homo sapiens) (P11229 whole entry, looked up): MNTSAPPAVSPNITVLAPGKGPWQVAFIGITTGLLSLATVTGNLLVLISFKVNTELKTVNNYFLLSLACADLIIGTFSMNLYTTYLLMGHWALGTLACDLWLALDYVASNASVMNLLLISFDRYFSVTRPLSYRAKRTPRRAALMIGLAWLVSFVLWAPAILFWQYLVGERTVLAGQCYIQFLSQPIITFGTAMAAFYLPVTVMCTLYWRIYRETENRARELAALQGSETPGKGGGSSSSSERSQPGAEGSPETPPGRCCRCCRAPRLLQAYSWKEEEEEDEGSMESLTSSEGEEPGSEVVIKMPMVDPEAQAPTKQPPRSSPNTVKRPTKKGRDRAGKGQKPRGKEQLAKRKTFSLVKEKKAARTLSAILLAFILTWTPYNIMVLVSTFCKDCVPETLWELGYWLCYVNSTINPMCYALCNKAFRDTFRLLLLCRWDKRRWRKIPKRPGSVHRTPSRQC
A remaining EC80 response of 5.68% was found for O=C(CCNS(=O)(=O)c1cccc2nsnc12)N1CCN(c2nccs2)CC1 in this work.
A remaining EC80 response of 13.6% was found for O=C(C(F)CNS(=O)(=O)c1cccc2nsnc12)N1CCN(c2ccncc2)CC1 (stereo unspecified) in this work.
A remaining EC80 response of 6.52% was found for O=C(CCNS(=O)(=O)c1cccc2nsnc12)N1CCN(c2cc(F)ccn2)CC1 in this work.
A remaining EC80 response of 7.16% was found for O=C(CCNS(=O)(=O)c1cccc2nsnc12)N1CCN(c2ncc(Cl)cn2)CC1 in this work.
A remaining EC80 response of 13.6% was found for O=C(CCNS(=O)(=O)c1cccc2nsnc12)N1CCN(c2cccnc2)CC1 in this work.
For O=C(CCNS(=O)(=O)c1cccc2nsnc12)N1CCN(c2ccccn2)CC1, the remaining EC80 response was 16.5% (inactive).
A remaining EC80 response of 3.37% was found for Cc1cc(Cl)nc(N2CCN(C(=O)CCNS(=O)(=O)c3cccc4nsnc34)CC2)c1C#N in this work.
For Cc1ccnc(N2CCN(C(=O)CCNS(=O)(=O)c3cccc4nsnc34)CC2)c1, the remaining EC80 response was 45.8% (inactive).
For O=C(CCNS(=O)(=O)c1cccc2nsnc12)N1CCN(c2nc(Cl)ns2)CC1, the remaining EC80 response was 31.6% (inactive).
For COc1cccnc1N1CCN(C(=O)CCNS(=O)(=O)c2ccccc2C#N)CC1, the remaining EC80 response was 91.8% (inactive).
In the case of N#Cc1ccccc1N1CCN(C(=O)CCNS(=O)(=O)c2cccc3nsnc23)CC1, the remaining EC80 response is reported as 43.9% (inactive).
In the case of COc1cccnc1N1CCN(C(=O)CCNS(=O)(=O)c2cn(C)c(C)n2)CC1, the remaining EC80 response is reported as 98.5% (inactive).
A remaining EC80 response of 3.23% was found for O=C(CCNS(=O)(=O)c1cccc2nsnc12)N1CCN(c2cccc(F)n2)CC1 in this work.
For CN(CCC(=O)N1CCN(c2ccncc2)CC1)S(=O)(=O)c1cccc2nsnc12, the remaining EC80 response was 35.8% (inactive).
In the case of COc1cccnc1N1CCN(C(=O)CCNS(=O)(=O)c2cccc(C#N)c2)CC1, the remaining EC80 response is reported as 97% (inactive).
A remaining EC80 response of 6.19% was found for O=C(CCNS(=O)(=O)c1cccc2nsnc12)N1CCN(c2nc3ccccc3s2)CC1 in this work.
In the case of O=C(CCNS(=O)(=O)c1cccc2nsnc12)N1CCN(c2ccccc2F)CC1, the remaining EC80 response is reported as 63.5% (inactive).
A remaining EC80 response of 1.97% was found for O=C(CCNS(=O)(=O)c1cccc2nsnc12)N1CCN(c2ccncc2)CC1 in this work.
In the case of COc1cccnc1N1CCN(C(=O)CCNS(=O)(=O)c2ccc3nsnc3c2)CC1, the remaining EC80 response is reported as 77.1% (inactive).
COc1cccnc1N1CCN(C(=O)C(F)CNS(=O)(=O)c2cccc3nonc23)CC1 (stereo unspecified) was tested, and the remaining EC80 response was 29.7% (inactive).
COc1ccccc1N1CCN(C(=O)CCNS(=O)(=O)c2cccc3nsnc23)CC1 was tested, and the remaining EC80 response was 102% (inactive).
A remaining EC80 response of -0.332% was found for O=C(CCNS(=O)(=O)c1cccc2nsnc12)N1CCN(c2ccc(Br)cn2)CC1 in this work.
With O=C(CCNS(=O)(=O)c1cccc2nsnc12)N1CCN(c2cc(C(F)(F)F)ccn2)CC1 the remaining EC80 response was 35.4% (inactive).
With Cc1cccc(N2CCN(C(=O)CCNS(=O)(=O)c3cccc4nsnc34)CC2)n1 the remaining EC80 response was 35.7% (inactive).
In the case of O=C(CCNS(=O)(=O)c1cccc2nsnc12)N1CCN(c2ncccc2C(F)(F)F)CC1, the remaining EC80 response is reported as 64.7% (inactive).
In the case of COc1cccnc1N1CCN(C(=O)C(F)CNS(=O)(=O)c2cccc3nsnc23)CC1 (stereo unspecified), the remaining EC80 response is reported as 19.4% (inactive).
In the case of O=C(CCNS(=O)(=O)c1cccc2nsnc12)N1CCN(c2ncccn2)CC1, the remaining EC80 response is reported as 62.7% (inactive).
A remaining EC80 response of 2.42% was found for O=C(C(F)CNS(=O)(=O)c1cccc2nonc12)N1CCN(c2ccncc2)CC1 (stereo unspecified) in this work.
A remaining EC80 response of 8.19% was found for O=C([C@H](F)CNS(=O)(=O)c1cccc2nonc12)N1CCN(c2ccncc2)CC1 in this work.
In the case of COc1cccnc1N1CCN(C(=O)CCNS(=O)(=O)c2cccc(-c3noc(C)n3)c2)CC1, the remaining EC80 response is reported as 97.5% (inactive).
A remaining EC80 response of 1.43% was found for Cc1cnccc1N1CCN(C(=O)CCNS(=O)(=O)c2cccc3nsnc23)CC1 in this work.
With O=C([C@@H](F)CNS(=O)(=O)c1cccc2nonc12)N1CCN(c2ccncc2)CC1 the remaining EC80 response was 56.6% (inactive).
A remaining EC80 response of 10.1% was found for O=C(CCNS(=O)(=O)c1cccc2nsnc12)N1CCN(c2cc(Cl)ccn2)CC1 in this work.
A remaining EC80 response of 14.4% was found for COc1cccc(N2CCN(C(=O)CCNS(=O)(=O)c3cccc4nsnc34)CC2)n1 in this work.
A remaining EC80 response of 8.91% was found for O=C(CCNS(=O)(=O)c1cccc2nsnc12)N1CCN(c2ccnc(Cl)c2)CC1 in this work.
A remaining EC80 response of 0.916% was found for O=C(CCNS(=O)(=O)c1cccc2nonc12)N1CCN(c2ccc(Br)cn2)CC1 in this work.
COc1cccnc1N1CCN(C(=O)CCNS(=O)(=O)c2ccc([N+](=O)[O-])cc2)CC1 was tested, and the remaining EC80 response was 92.7% (inactive).
A remaining EC80 response of 3.02% was found for O=C(CCNS(=O)(=O)c1cccc2nonc12)N1CCN(c2ccncc2)CC1 in this work.
A remaining EC80 response of 13.3% was found for O=C(CCNS(=O)(=O)c1cccc2nsnc12)N1CCN(c2nc3ccccc3o2)CC1 in this work.
For COc1cccnc1N1CCN(C(=O)CCNS(=O)(=O)c2ccccc2[N+](=O)[O-])CC1, the remaining EC80 response was 90% (inactive).
A remaining EC80 response of 5.92% was found for O=C(CCNS(=O)(=O)c1cccc2nsnc12)N1CCN(c2cccc(Cl)n2)CC1 in this work.
